Bounds are passed on as bounds.

Test [1] has as its target Kelch domain of human KEAP1 (321-624 aa) (Homo sapiens (Human), UniProt Q14145). Nature of the test: KEAP1 KELCH ThermoFluor binding assay.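 Also: Ligand-induced melting temperature shift of E. coli-expressed KEAP1 Kelch protein, Kd estimated from concentration-response curves of ΔTm.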 Conditions: KEAP Kelch […], 1,8-ANS, pH 7.0, average of results obtained, read-out: Tf Kd. In general terms: DSF heats the sample and reads unfolding from a dye or from intrinsic fluorescence.
In test [2] the test system is Glo-Response ARE-luc2P HEK293 cell line. Nature of the test: ARE luciferase reporter cell-based assay.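 Also: luciferase signal tracks Nrf2 activation of the ARE once compounds disrupt KEAP1-Nrf2 binding, read with One-Glo reagent, DMSO serving as low control.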 Conditions: Homo sapiens, HEK293, 24 h, average of results obtained. (In general: In a reporter assay the amount or activity of a reporter protein is the signal.)

Chain of Kelch domain of human KEAP1 (321-624 aa) (Q14145 321-624): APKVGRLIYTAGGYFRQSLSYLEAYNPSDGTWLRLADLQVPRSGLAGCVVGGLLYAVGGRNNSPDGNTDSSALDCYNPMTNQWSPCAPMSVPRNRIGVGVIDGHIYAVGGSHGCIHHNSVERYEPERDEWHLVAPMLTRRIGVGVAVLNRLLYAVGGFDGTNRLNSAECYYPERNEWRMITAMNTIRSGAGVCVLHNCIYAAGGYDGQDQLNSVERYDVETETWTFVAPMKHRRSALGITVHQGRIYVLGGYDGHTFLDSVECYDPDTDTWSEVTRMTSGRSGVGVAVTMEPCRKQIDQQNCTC

The term Kd denotes the equilibrium constant for the complex coming apart. The term EC50 denotes the concentration that produces a half-maximal response. A high value points to lower potency in that assay. Take `Cc1c([C@H](CC(=O)O)c2ccc(Cl)c(CN3CC4CCCCN4c4ncc(F)cc4S3(=O)=O)c2)ccn2c(C(F)(F)F)nnc12` (single isomer, unassigned) [Example 93, (*R)-3-(4-Chloro-3-(((*S)-3-fluoro-5,5-dioxido-7,7a,8,9,10,11-hexahydro-6H-dipyrido[2,1-d:2′,3′-f][1,2,5]thiadiazepin-6-yl)methyl)phenyl)-3-(8-methyl-3-(trifluoromethyl)-[1,2,4]triazolo[4,3-a]pyridine-7-yl)propanoic Acid]: the Kd in test [1] is less than 1 nM. Further, the EC50 in test [2] worked out at 10 nM.

As for `Cc1ccc([C@@H](CC(=O)O)c2ccn3c(C(F)F)nnc3c2C)cc1CN1C[C@H]2CCCN2c2ncc(C#N)cc2S1(=O)=O` (single isomer, unassigned) [Example 541, (*R)-3-(3-(((*R)-3-Cyano-5,5-dioxido-7a,8,9,10-tetrahydropyrido[2,3-f]pyrrolo[2,1-d][1,2,5]thiadiazepin-6(7H)-yl)methyl)-4-methylphenyl)-3-(3-(difluoromethyl)-8-methyl-[1,2,4]triazolo[4,3-a]pyridin-7-yl)propanoic Acid], in test [1], the Kd is less than 1 nM. In test [2], the EC50 was 223 nM.

For the compound `CCn1nnc2c(C)c([C@H](c3ccc(C)c(CN4CC5(CCOCC5)Oc5ncc(C)cc5S4(=O)=O)c3)C(C)(C)C(=O)O)ccc21` (single isomer, unassigned) [Example 420, (*S)-3-(1-ethyl-4-methyl-1H-benzo[d][1,2,3]triazol-5-yl)-2,2-dimethyl-3-(4-methyl-3-((8′-methyl-1′,1′-dioxido-2,3,5,6-tetrahydrospiro[pyran-4,4′-pyrido[2,3-b][1,4,5]oxathiazepin]-2′(3′H)-yl)methyl)phenyl)propanoic Acid], the Kd in test [1] is 268 nM. In test [2], this compound yielded an EC50 of 57.8 nM.

With `Cc1ccc([C@H](c2ccn3c(C(F)F)nnc3c2C)C(C)(C)C(=O)O)cc1CN1CC2(CCOCC2)Oc2ncccc2S1(=O)=O` (single isomer, unassigned) [Example 54, (*R)-3-(3-(Difluoromethyl)-8-methyl-[1,2,4]triazolo[4,3-a]pyridin-7-yl)-3-(3-((1′,1′-dioxido-2,3,5,6-tetrahydrospiro[pyran-4,4′-pyrido[2,3-b][1,4,5]oxathiazepin]-2′(3′H)-yl)methyl)-4-methylphenyl)-2,2-dimethylpropanoic Acid], the Kd in test [1] amounted to 1790 nM. The compound also showed an EC50 in test [2] of 956 nM.

With `Cc1cnc2c(c1)S(=O)(=O)N(Cc1cc([C@H](c3ccn4c(C(F)(F)F)nnc4c3C)C(C)(C)C(=O)O)ccc1C)C[C@]1(CCOC1)O2` (single isomer, unassigned) [Example 387, (*R)-2,2-Dimethyl-3-(4-methyl-3-(((*S)-8′-methyl-1′,1′-dioxido-4,5-dihydro-2H-spiro[furan-3,4′-pyrido[2,3-b][1,4,5]oxathiazepin]-2′(3′H)-yl)methyl)phenyl)-3-(8-methyl-3-(trifluoromethyl)-[1,2,4]triazolo[4,3-a]pyridin-7-yl)propanoic Acid], the Kd in test [1] was determined as 1230 nM. The same compound registered an EC50 in test [2] of 270 nM.

On to `Cc1ccc(C(CC(=O)O)c2ccn3c(C(F)F)nnc3c2C)cc1CN1C[C@@H]2CCCCN2c2ncccc2S1(=O)=O` (stereo in doubt) [Example 446, 3-(3-(Difluoromethyl)-8-methyl-[1,2,4]triazolo[4,3-a]pyridin-7-yl)-3-(3-(((*S)-5,5-dioxido-7,7a,8,9,10,11-hexahydro-6H-dipyrido[2,1-d:2′,3′-f][1,2,5]thiadiazepin-6-yl)methyl)-4-methylphenyl)propanoic Acid], for which the equilibrium dissociation constant (Kd) in test [1] is less than 1 nM. In addition, the EC50 in test [2] was 23.8 nM.

In the case of `CCn1nnc2c(C)c([C@H](CC(=O)O)c3ccc(C)c(CN4C[C@H]5CCCN5c5ncccc5S4(=O)=O)n3)ccc21` (single isomer, unassigned) [Example 297, (*S)-3-(6-(((R)-5,5-Dioxido-7a,8,9,10-tetrahydropyrido[2,3-f]pyrrolo[2,1-d][1,2,5]thiadiazepin-6(7H)-yl)methyl)-5-methylpyridin-2-yl)-3-(1-ethyl-4-methyl-1H-benzo[d][1,2,3]triazol-5-yl)propanoic Acid], the Kd in test [1] is less than 1 nM. Moreover, the EC50 in test [2] turned out to be 6 nM.

In the case of `Cc1cnc2c(c1)S(=O)(=O)N(Cc1cc([C@@H](CC(=O)O)c3ccn4c(C(F)(F)F)nnc4c3C)ccc1C#N)CC1(CC1)O2` (single isomer, unassigned) [Example 106, (*R)-3-(4-Cyano-3-((8′-methyl-1′,1′-dioxidospiro[cyclopropane-1,4′-pyrido[2,3-b][1,4,5]oxathiazepin]-2′(3′H)-yl)methyl)phenyl)-3-(8-methyl-3-(trifluoromethyl)-[1,2,4]trizolo[4,3-a]pyridine-7-yl)propanoic Acid], in test [1], the Kd was found to be 21 nM. In test [2], this compound came in with an EC50 of more than 20000 nM.

As to `Cc1ccc([C@@H](CC(=O)O)c2ccn3c(C(F)(F)F)nnc3c2C)cc1CN1C[C@@H]2CCCN2c2ccccc2S1(=O)=O` (single isomer, unassigned) [Example 275, (*R)-3-(3-(((S)-5,5-Dioxido-7a,8,9,10-tetrahydrobenzo[f]pyrrolo[2,1-d][1,2,5]thiadiazepin-6(7H)-yl)methyl)-4-methylphenyl)-3-(8-methyl-3-(trifluoromethyl)-[1,2,4]triazolo[4,3-a]pyridin-7-yl)propanoic Acid], the Kd in test [1] was determined as 8.69 nM. Also, the EC50 in test [2] stood at 399 nM.

For `Cc1ccc(C(CC(=O)O)c2cc(OC3CC3)c3c(c2)nnn3C)cc1CN1C[C@H]2CCCCN2c2ncccc2S1(=O)=O` (stereo in doubt) [Example 403, 3-(7-Cyclopropoxy-1-methyl-1H-benzo[d][1,2,3]triazol-5-yl)-3-(3-(((*R)-5,5-dioxido-7,7a,8,9,10,11-hexahydro-6H-dipyrido[2,1-d:2′,3′-f][1,2,5]thiadiazepin-6-yl)methyl)-4-methylphenyl)propanoic Acid], the Kd in test [1] was less than 1 nM. Moreover, the midpoint of the response in test [2], the EC50, lay at 20.8 nM.

On to `CCn1nnc2c(C)c([C@@H](CC(=O)O)c3ccc(C)c(CN4C[C@@H]5CCCCN5c5ncccc5S4(=O)=O)n3)ccc21` (single isomer, unassigned) [Example 303, (*R)-3-(6-(((*S)-5,5-Dioxido-7,7a,8,9,10,11-hexahydro-6H-dipyrido[2,1-d:2′,3′-][1,2,5]thiadiazepin-6-yl)methyl)-5-methylpyridin-2-yl)-3-(1-ethyl-4-methyl-1H-benzo[d][1,2,3]triazol-5-yl)propanoic Acid], for which the Kd in test [1] was less than 1 nM. This compound yielded an EC50 in test [2] of 27.1 nM.

Turning to `Cc1ccc([C@@H](c2ccn3c(C(F)(F)F)nnc3c2C)C(C)(C)C(=O)O)cc1CN1CC2(CCOCC2)Oc2nc(OCCCOCCCO)ccc2S1(=O)=O` (single isomer, unassigned) [Example 607, (*S)-3-(3-((7′-(3-(3-Hydroxypropoxy)propoxy)-1′,1′-dioxido-2,3,5,6-tetrahydrospiro[pyran-4,4′-pyrido[2,3-b][1,4,5]oxathiazepin]-2′(3′H)-yl)methyl)-4-methylphenyl)-2,2-dimethyl-3-(8-methyl-3-(trifluoromethyl)-[1,2,4]triazolo[4,3-a]pyridin-7-yl)propanoic Acid], the Kd in test [1] was determined as 1360 nM. Also, the EC50 in test [2] worked out at 7620 nM.

For `COC1CCN(CCOc2nc3c(cc2C)S(=O)(=O)N(Cc2cc([C@@H](c4ccn5c(C(F)(F)F)nnc5c4C)C(C)(C)C(=O)O)ccc2C)CC2(CC2)O3)CC1` (single isomer, unassigned) [Example 378, (*S)-3-(3-((7′-(2-(4-Methoxypiperidin-1-yl)ethoxy)-8′-methyl-1′,1′-dioxidospiro[cyclopropane-1,4′-pyrido[2,3-b][1,4,5]oxathiazepin]-2′(3′H)-yl)methyl)-4-methylphenyl)-2,2-dimethyl-3-(8-methyl-3-(trifluoromethyl)-[1,2,4]triazolo[4,3-a]pyridine-7-yl)propanoic Acid], in test [1], the Kd was less than 1 nM. Further, the midpoint of the response in test [2], the EC50, lay at 4 nM.

In the case of `Cc1cc2cc([C@H](CC(=O)O)c3ccc(C)c(CN4C[C@H]5CCCCN5c5ncccc5S4(=O)=O)c3)n(C)c2nn1` (single isomer, unassigned) [Example 445, (*R)-3-(3,7-Dimethyl-7H-pyrrolo[2,3-c]pyridazin-6-yl)-3-(3-(((*R)-5,5-dioxido-7,7a,8,9,10,11-hexahydro-6H-dipyrido[2,1-d:2′,3′-f][1,2,5]thiadiazepin-6-yl)methyl)-4-methylphenyl)propanoic Acid], in test [1], the Kd was less than 1 nM. A half-maximal effect in test [2] (EC50) was put at 716 nM.

For the compound `Cc1ccc(C(CC(=O)O)c2ccn3c(C(F)(F)F)nnc3c2C)cc1CN1CC2CCC(F)(F)CN2c2ncccc2S1(=O)=O` (stereo not shown) [Example 452, 3-(3-((10,10-Difluoro-5,5-dioxido-7,7a,8,9,10,11-hexahydro-6H-dipyrido[2,1-d:2′,3′-f][1,2,5]thiadiazepin-6-yl)methyl)-4-methylphenyl)-3-(8-methyl-3-(trifluoromethyl)-[1,2,4]triazolo[4,3-a]pyridin-7-yl)propanoic Acid], the Kd in test [1] is less than 1 nM. This compound registered an EC50 in test [2] of 116 nM.

Regarding `Cc1ccc(C(c2ccn3c(C(F)(F)F)nnc3c2C)C(C)(C)C(=O)O)cc1CN1CC2(CCOCC2)Oc2nc(N[C@H](C)CCO)ccc2S1(=O)=O` (stereo partly shown) [Example 117], the Kd in test [1] is less than 1 nM. In test [2], the EC50 amounted to 425 nM.

With `Cc1ccc([C@@H](CC(N)=O)c2ccn3c(C(F)(F)F)nnc3c2C)cc1CN1C[C@@H]2CCCCN2c2ncccc2S1(=O)=O` (single isomer, unassigned) [Example 549, (*R)-3-(3-(((*S)-5,5-Dioxido-7,7a,8,9,10,11-hexahydro-6H-dipyrido[2,1-d:2′,3′-f][1,2,5]thiadiazepin-6-yl)methyl)-4-methylphenyl)-3-(8-methyl-3-(trifluoromethyl)-[1,2,4]triazolo[4,3-a]pyridin-7-yl)propanamide], in test [1], the Kd was 84600 nM. Moreover, in test [2], the EC50 is more than 20000 nM.

The record behind these values is patent US10947252B2, “Inhibitors of KEAP1-Nrf2 protein-protein interaction” (Janssen Pharmaceutica NV, priority 2018, dated 2021).
